Consider 13 compounds from patent US10219516B2, “Molecules having pesticidal utility, and intermediates, compositions, and processes, related thereto” (priority 2015, dated 2019).

Where two headings read alike, the source gives them in different places.

Format in all cases: in vivo
In experiment [1] the test system is Green Peach Aphid (Myzus persicae, MYZUPE). Description: Bioassay on Green Peach Aphid (GPA), foliar spray on infested cabbage seedlings. To be noted: 72 h. An outline of the steps: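 Cabbage seedlings (2-3 true leaves) infested with 20-50 wingless adult and nymph aphids one day before treatment; sprayed to runoff at 200 ppm in 0.025% Tween 20 water with 20% acetone/methanol, four pots per treatment. Held three days at about 25° C; live aphids counted, % control by Abbott's correction versus solvent check.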

For experiment [2], the system named is Yellow Fever Mosquito (Aedes aegypti, AEDSAE). Description: Bioassay on Yellow Fever Mosquito (YFM), 96-well plate larval assay. To be noted: for YFM (Biological Results, rating): Species YFM (Yellow Fever Mosquito). The essentials: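 Aedes aegypti larvae (about 1 day old) in liver-powder water were added to plates dispensed from DMSO master plates (4000 ppm stock) diluted with 90:10 water/acetone; six replicate plates per master. Lidded plates were held at room temperature for 3 days, then each well was scored for mortality.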

The subject of experiment [3] is Cabbage Looper (Trichoplusia ni, TRIPNI). The experiment is described as follows: Bioassay on Cabbage Looper (CL), 128-well diet tray assay. To be noted: Trichoplusia ni. The essentials: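 Using eight wells per molecule, artificial diet was dosed at 50 μg/cm^2 with compound in 90:10 acetone-water and dried before one to five second-instar larvae were added per well. Covered vented trays were kept at 25° C. with 14:10 light-dark for five to seven days, then per-well percent mortality was recorded and averaged.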

Experiment [4] deals with Beet Armyworm (Spodoptera exigua, LAPHEG). Description: Bioassay on Beet Armyworm (BAW), 128-well diet tray assay. An outline of the steps: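 Percent mortality, averaged across eight replicate wells, was scored after five to seven days at 25° C. under a 14:10 light-dark cycle. Each well's diet carried 50 μg/cm^2 of the dried test molecule and held one to five second instar larvae.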

Setting [5] is: foliar, Species GPA (Green Peach Aphid), read-out: GPA (Biological Results, rating).
The mark [6] stands for this setting: Species CL (Cabbage Looper), read-out: CL (Biological Results, rating).
[7] abbreviates: Species BAW (Beet Armyworm), read-out: BAW (Biological Results, rating).

For the compound `O=C(Nc1ccc(F)cc1)c1cc(NC(=O)[C@H]2[C@H](c3cc(Cl)c(Cl)c(Cl)c3)C2(Cl)Cl)ccc1Cl` [F279, 2-Chloro-5-((1R,3R)-2,2-dichloro-3-(3,4,5-trichlorophenyl)cyclopropane-1-carboxamido)-N-(4-fluorophenyl)benzamide], in experiment [1] (setting [5]), the pest or weed control at 200 µg/mL lay within 80 to 100%. For the same compound, the “YFM (Biological Results, rating)” value in experiment [2] is recorded as “A (80-100)”. The pest or weed control at 50 µg/cm2 in experiment [3] (setting [6]) and in experiment [4] (setting [7]) was 50 to 100% throughout.

`O=C(Nc1ccc(F)cc1)c1cccc(NC(=O)[C@H]2[C@H](c3cc(Cl)cc(Cl)c3)C2(Cl)Cl)c1F` (relative stereo) [F15, trans-3-(2,2-Dichloro-3-(3,5-dichlorophenyl)cyclopropane-1-carboxamido)-2-fluoro-N-(4-fluorophenyl)benzamide]: the pest or weed control at 200 µg/mL in experiment [1] (setting [5]) lay within 0 to 80%. Moreover, the “YFM (Biological Results, rating)” value in experiment [2] is listed as “A (80-100)”. For the same compound, the pest or weed control at 50 µg/cm2 in experiment [3] (setting [6]) and in experiment [4] (setting [7]) was 50 to 100% each time.

As for `CNC(=O)c1ccc(NC(=O)c2cc(NC(=O)[C@H]3[C@H](c4cc(Cl)cc(Cl)c4)C3(Cl)Cl)ccc2Cl)cn1` (relative stereo) [F77, trans-5-(2-Chloro-5-(2,2-dichloro-3-(3,5-dichlorophenyl)cyclopropane-1-carboxamido)benzamido)-N-methylpicolinamide], the pest or weed control at 200 µg/mL in experiment [1] (setting [5]) was 80 to 100%. For the same compound, in experiment [2], the “YFM (Biological Results, rating)” value is “A (80-100)”. The pest or weed control at 50 µg/cm2 in experiment [3] (setting [6]) and in experiment [4] (setting [7]) was 50 to 100% in each case.

`O=C(Nc1ccc(F)cc1)c1cc(NC(=O)[C@H]2[C@H](c3cc(Cl)cc(Cl)c3)C2(Cl)Cl)ccc1Cl` (relative stereo) [F1, trans-2-chloro-5-(2,2-dichloro-3-(3,5-dichlorophenyl)cyclopropane-1-carboxamido)-N-(4-fluorophenyl)benzamide]: the pest or weed control at 200 µg/mL in experiment [1] (setting [5]) was 0 to 80%. Besides, the “YFM (Biological Results, rating)” value in experiment [2] was “A (80-100)”. Further, the pest or weed control at 50 µg/cm2 in experiment [3] (setting [6]) and in experiment [4] (setting [7]) was 50 to 100% throughout.

Turning to `O=C(Nc1cccc(F)c1)c1cc(NC(=O)[C@H]2[C@H](c3cc(Cl)c(Cl)c(Cl)c3)C2(Cl)Cl)ccc1Cl` (relative stereo) [F50, trans-2-Chloro-5-(2,2-dichloro-3-(3,4,5-trichlorophenyl)cyclopropane-1-carboxamido)-N-(3-fluorophenyl)benzamide], the pest or weed control at 200 µg/mL in experiment [1] (setting [5]) lay in the range of 0 to 80%. In experiment [2], the “YFM (Biological Results, rating)” value was “A (80-100)”. The pest or weed control at 50 µg/cm2 in experiment [3] (setting [6]) and in experiment [4] (setting [7]) was 50 to 100% each time.

For `CCCN(C(=O)c1cc(NC(=O)[C@H]2[C@H](c3cc(Cl)cc(Cl)c3)C2(Cl)Cl)ccc1Cl)c1ccc(F)cc1` (relative stereo) [F101, trans-2-Chloro-5-(2,2-dichloro-3-(3,5-dichlorophenyl)cyclopropane-1-carboxamido)-N-(4-fluorophenyl)-N-propylbenzamide], the pest or weed control at 200 µg/mL in experiment [1] (setting [5]) was 0 to 80%. Moreover, the “YFM (Biological Results, rating)” value in experiment [2] is reported as “A (80-100)”. Moreover, the pest or weed control at 50 µg/cm2 in experiment [3] (setting [6]) and in experiment [4] (setting [7]) was 50 to 100% in each case.

As to `O=C(Nc1ccc(F)cc1)c1cc(NC(=O)[C@H]2[C@H](c3cc(Cl)cc(C(F)(F)F)c3)C2(Cl)Cl)ccc1Cl` (relative stereo) [F87, trans-2-Chloro-5-(2,2-dichloro-3-(3-chloro-5-(trifluoromethyl)phenyl)cyclopropane-1-carboxamido)-N-(4-fluorophenyl)benzamide], in experiment [1] (setting [5]), the pest or weed control at 200 µg/mL was 80 to 100%. Moreover, the “YFM (Biological Results, rating)” value in experiment [2] is on record as “A (80-100)”. For the same compound, the pest or weed control at 50 µg/cm2 in experiment [3] (setting [6]) and in experiment [4] (setting [7]) was 50 to 100% throughout.

As for `Cc1cc(F)ccc1NC(=O)c1cc(NC(=O)[C@H]2[C@H](c3cc(Cl)cc(Cl)c3)C2(Cl)Cl)ccc1Cl` (relative stereo) [F37, trans-2-Chloro-5-(2,2-dichloro-3-(3,5-dichlorophenyl)cyclopropane-1-carboxamido)-N-(4-fluoro-2-methylphenyl)benzamide], the pest or weed control at 200 µg/mL in experiment [1] (setting [5]) is 80 to 100%. In addition, the “YFM (Biological Results, rating)” value in experiment [2] is “A (80-100)”. Further, the pest or weed control at 50 µg/cm2 in experiment [3] (setting [6]) and in experiment [4] (setting [7]) was 50 to 100% throughout.

As for `CN(C(=O)c1cc(NC(=O)[C@H]2[C@H](c3ccc(OC(F)(F)F)c(Cl)c3)C2(Cl)Cl)ccc1Cl)c1ccc(F)cc1` (relative stereo) [F80, trans-2-Chloro-5-(2,2-dichloro-3-(3-chloro-4-(trifluoromethoxy)phenyl)cyclopropane-1-carboxamido)-N-(4-fluorophenyl)-N-methylbenzamide], the pest or weed control at 200 µg/mL in experiment [1] (setting [5]) lay in the range of 80 to 100%. The “YFM (Biological Results, rating)” value in experiment [2] is reported as “A (80-100)”. Also, the pest or weed control at 50 µg/cm2 in experiment [3] (setting [6]) and in experiment [4] (setting [7]) was 50 to 100% each time.

In the case of `O=C(Nc1ccncc1)c1cc(NC(=O)[C@H]2[C@H](c3cc(Cl)cc(Cl)c3)C2(Cl)Cl)ccc1Cl` (relative stereo) [F26, trans-2-Chloro-5-(2,2-dichloro-3-(3,5-dichlorophenyl)cyclopropane-1-carboxamido)-N-(pyridin-4-yl)benzamide], in experiment [1] (setting [5]), the pest or weed control at 200 µg/mL fell in the range of 0 to 80%. Also, the “YFM (Biological Results, rating)” value in experiment [2] is listed as “A (80-100)”. The pest or weed control at 50 µg/cm2 in experiment [3] (setting [6]) and in experiment [4] (setting [7]) was 50 to 100% each time.

With `CN(C(=O)c1cc(NC(=O)[C@H]2[C@H](c3cc(Cl)cc(Cl)c3)C2(Cl)Cl)ccc1F)c1cccc(F)c1` (relative stereo) [F46, trans-5-(2,2-Dichloro-3-(3,5-dichlorophenyl)cyclopropane-1-carboxamido)-2-fluoro-N-(3-fluorophenyl)-N-methylbenzamide], the pest or weed control at 200 µg/mL in experiment [1] (setting [5]) fell in the range of 0 to 80%. Moreover, the “YFM (Biological Results, rating)” value in experiment [2] is recorded as “A (80-100)”. Besides, the pest or weed control at 50 µg/cm2 in experiment [3] (setting [6]) and in experiment [4] (setting [7]) was 50 to 100% throughout.

As for `CN(C(=O)c1cc(NC(=O)[C@H]2[C@H](c3cc(Cl)cc(Cl)c3)C2(Cl)Cl)ccc1Cl)c1ccc(F)cc1` (relative stereo) [F19, trans-2-Chloro-5-(2,2-dichloro-3-(3,5-dichlorophenyl)cyclopropane-1-carboxamido)-N-(4-fluorophenyl)-N-methylbenzamide], the pest or weed control at 200 µg/mL in experiment [1] (setting [5]) was 80 to 100%. In experiment [2], the “YFM (Biological Results, rating)” value is given as “A (80-100)”. In addition, the pest or weed control at 50 µg/cm2 in experiment [3] (setting [6]) and in experiment [4] (setting [7]) was 50 to 100% in each case.

Regarding `CN(C(=O)c1cc(NC(=O)[C@H]2[C@H](c3ccc(Cl)c(F)c3)C2(Cl)Cl)ccc1Cl)c1ccc(F)cc1` (relative stereo) [PF35, trans-2-Chloro-5-(2,2-dichloro-3-(4-chloro-3-fluorophenyl)cyclopropane-1-carboxamido)-N-(4-fluorophenyl)-N-methylbenzamide], the pest or weed control at 200 µg/mL in experiment [1] (Green Peach Aphid, foliar spray on cabbage seedlings, read-out: GPA rating) lay within 80 to 100%. In addition, in experiment [2] (Yellow Fever Mosquito, 96-well plate larval assay), the YFM rating entry is “A (80-100)”. For the same compound, the pest or weed control at 50 µg/cm2 in experiment [3] (Cabbage Looper, 128-well diet tray assay, read-out: CL rating) fell in the range of 50 to 100%; in experiment [4] (Beet Armyworm, 128-well diet tray assay, read-out: BAW rating) it was 50 to 100%.
